# Measured values: patent US20020032182A1, “Method of treating hypersomnia sleep disturbance or insomnia sleep disturbance that is secondary to another condition” (priority 1997, published 2002)
# Entries after “also recorded” stand apart in the source; their conditions may differ. Structures can show the parent of a compound that is named as a salt.
# Experiments:
# [1] = tested on: pre-menstrual syndrome (PMS); details: women with PMS treated with fluoxetine; cited from earlier work
# [2] = tested on: depression in the form of dysthymia; test: Patient No. 1 weekly blinded component study with Beck Scale and SCL-90 Scale self-rating; assay type: in vivo, human; details: for patient-reported symptoms during week: component taken along with sertraline 125 mg qd
# Method: Patient No. 1 was a person who, after a series of psychoanalysis/psychotherapy sessions, was diagnosed as suffering from depression in the form of dysthymia. Patient No. 1 experienced a chronic low mood with markedly diminished interest and pleasure in all activities including work, eating, and sexual relations.
# Initially, Patient No. 1 was treated only with the known antidepressant sertraline (sold under the registered trademark ZOLOFT®). Sertraline is a selective serotonin reuptake inhibitor. Sertraline was administered in amounts from 50 to 150 mg qd (per day); the ideal dose for this patient was ultimately determined to be 125 mg qd (per day).
# Independent of the sertraline treatments, the patient began taking a vitamin and mineral supplement that included a series of components. […] As such improvement was unexpected, a study of the components of the mineral preparation was undertaken. During this study, Patient No. 1 stopped taking the composite preparation.
# In this study, Patient No. 1 took one component of the preparation at a time according to a schedule of one pill a day for five days, Monday through Friday. At the end of each week, they filled out two self-rating scales that are used in the diagnosis and monitoring of depression. These scales are the Beck Scale and the SCL-90 Scale, both of which are well known in the field of psychiatry and psychotherapy. Patient No. 1 continued to take sertraline at 125 mg per day. During the study, Patient No. 1 was not informed of what they were taking.
# The series of events described in the above example are more fully set forth in the graphs in FIGS. 1 and 2. FIG. 1 is a bar graph displaying the scores on the Beck Scale, a self-rating scale for depression, at the end of each weekly treatment.
# FIG. 2 is a bar graph of the total score on the SCL-90 Scale. The SCL-90 is composed of 90 questions. It is designed to measure symptoms of somatization, obsessive-compulsive behavior, interpersonal sensitivity, depression, anxiety, hostility, phobic anxiety, paranoid ideation, and psychoticism. It is noted that the grand total of scores on each Friday closely parallels the results of the Beck Scale.
# severe dysthymia = test: Patient No. 3 treatment of severe dysthymia; assay type: in vivo, human
# Source text: Patient No. 3 was a divorced person experiencing chronic suicidal depression for about 15 years. For as long as the patient can remember, they have had episodic, mild-to-moderate mood swings. Approximately 15 years ago, their condition worsened and they were depressed almost daily. Their thoughts were slowed down, they felt intensely sad, guilty, worthless, confused, and desperate. Over a period of approximately two years they underwent therapy with a social worker and psychotherapy with a psychiatrist, with little positive results. No pharmaco-therapy was involved in either of these treatments. Initially, Patient No. 3 met with the inventor and identified a childhood source as a partial cause of their depression, low self-esteem and dysfunctional thinking. Although they appreciated the insights gained through the psychoanalysis/psychotherapy with the inventor, their depression persisted unabated. They were rejected by their girlfriend and became frighteningly suicidal. […] Within six months they developed a tolerance to the drug and it was increased to 100 mg per day with no effect. They stopped […]® and started bupropion 100 mg b.i.d and lithium 300 mg t.i.d. Bupropion is an aminoketone antidepressant, and lithium is a metal used to treat bipolar disorder. […] Their condition was desperate and life-threatening.
# [3] = tested on: pre-menstrual syndrome (PMS) and major depression; test: Patient No. 4 treatment of major depression and self-rating of pre-menstrual syndrome symptoms; assay type: in vivo, human
# Method: Patient No. 4 was a person who has struggled to overcome a wide variety of psychiatric symptoms, two of which are depression and pre-menstrual syndrome (PMS). After several treatments, it was determined that a combination of paroxetine 20 mg t.i.d. and lithium 300 mg t.i.d. diminished their symptoms of obsessive-compulsive disorder, depression, hypomania and PMS.
# In FIGS. 6-8 the abbreviations for each symptom on the graphs may be translated as follows:
# Patient No. 4's formal diagnoses were Multiple Personality Disorder, Obsessive-Compulsive Disorder, Major Depression Disorder, Alcoholism (recovering), and Pre-Menstrual Syndrome (PMS).
# Set forth below in Table 1 are the research criteria set forth in the Diagnostic and Statistical Manual of Mental Disorders, Forth edition, published by the American Psychiatric Association for Pre-Menstrual Dysphoric Disorder, or Pre-Menstrual Syndrome.
# They described a typical menses as follows. They were usually moderately to severely depressed for at least two days during the week before their menses. They had sudden mood swings. One moment they would be crying and the next they would be laughing wildly, or they would have sudden outbursts of anger. They were markedly tense and would fidget constantly. They tired easily and lacked energy. They could barely drag themself out of bed each morning. They craved carbohydrates and often would eat several doughnuts, whole cakes, or boxes of cookies. They slept little, and for two or three nights they would have night sweats that drenched their bed. They also experienced back cramps, bloating and pains in their joints and muscles. They had trouble concentrating and was unable to do life's simplest chores. Their PMS interfered with their ability to function. They lost interest in their favorite hobby, reading.
# [4] = tested on: pre-menstrual syndrome (PMS); test: Patient No. 2 pre-menstrual syndrome observation; assay type: in vivo, human; details: chromium 200 μg per day
# Method: They said that they had less carbohydrate craving during the week before, that they were less irritable, that their dysphoria was relieved, and that their usual cramps were non-existent. Thus, an aspect of the present invention includes the treatment of pre-menstrual syndrome (PMS), or dysmenorrhea (problematic and/or painful menses), comprising administering chromium in a preferred dose of 200 μg per day to a patient in need thereof.
# [5] = tested on: depression in the form of dysthymia; test: Patient No. 1 weekly blinded component study with Beck Scale and SCL-90 Scale self-rating; assay type: in vivo, human
# Plasma chromium level = assay type: in vivo, human
# Method: Most preferred dosage ranges of chromium are those doses sufficient to deliver from about 4.5 to about 6 μg of chromium per kilogram (kg) of body weight. This dosage range is generally several fold greater than that contained in most commercially available multi-vitamin and mineral preparations. This amount results in a plasma chromium level between 0.9 μg/liter to 2.1 μg/liter. The plasma level will vary depending on the level of exercise, i.e., the more one exercises, the more chromium is required to maintain plasma levels.
# Commercially available tubes for the collection of blood can contain significant amounts of chromium. To avoid contamination, plasma levels of chromium should be determined from blood collected in heparinized or EDTA tubes.
# alcohol craving = test: Patient No. 1 alcohol craving while taking chromium picolinate alone; assay type: in vivo, human
# Source text: During the later stages of the study described above, when Patient No. 1 was taking chromium picolinate alone, they also noticed a change in their ability to tolerate alcohol. Both of their parents were alcoholics so they guarded carefully against this outcome by drinking infrequently.
# Despite this effort, […] often experienced intense cravings for alcohol. Prior to […] treatment with chromium, when […] consumed alcohol, […] could only drink it by gulping it. […] experienced rapid intoxication, unpleasant feelings, and a severe hangover the next day. […] […] also observed that […] could drink in moderation, without having a severe hangover the next day.
# dysthymia = test: Patient No. 2 weekly component study with Beck Scale and SCL-90 Scale; assay type: in vivo, human
# Method: Patient No. 2 was a single person. They are the child of Patient No. 1. They complained of weight gain, hyperphagia, hypersomnia, loss of interest in sex, irritability and an inability to concentrate. They stated that they had been seeing psychotherapists since they were […], but had no success in dealing with their depression. They were also diagnosed as having dysthymia.
# They had taken sertraline in the amount of 50 mg qd with little help. This dosage was increased to 100 mg qd which proceeded for a period of five weeks. […] They were not as weepy and their outlook was less negative. Their interest in sex was increased. Their appetite remained the same.
# Patient No. 2 then began a similar study as that described above for Patient No. 1. For the first week, they took one vitamin C tablet daily along with 100 mg of sertraline. Their depression appeared to worsen as reflected by their grand total Beck score of +12 and their SCL-90 of +4 as more fully portrayed on the FIG. 4.
# For Patient No. 2, FIG. 4 presents Patient No. 2's Beck Scale total scores, and FIG. 5 presents a graph of the four subscales of somatization, obsessive-compulsive, depression, and anxiety on the SCL-90 Scale.
# [6] = sertraline 100 mg with one vitamin C tablet daily, first week
# [7] = sertraline only, 50 to 150 mg qd
molecule,measurement,setting,value
CNCCC(Oc1ccc(C(F)(F)F)cc1)c1ccccc1 (centres unmarked) [fluoxetine],women suffering from PMS without a positive response,[1],~40%
[Se] [selenium],patient-reported symptoms during week,[2],felt agitated
CC(NC(C)(C)C)C(=O)c1cccc(Cl)c1 (centres unmarked) [bupropion],adverse effect leading to discontinuation,severe dysthymia; bupropion 100 mg b.i.d. with lithium 300 mg t.i.d.,developed involuntary muscle twitches
Fc1ccc([C@@H]2CCNC[C@H]2COc2ccc3c(c2)OCO3)cc1 [paroxetine],change in severity of PMS symptoms,[3]; paroxetine,reduced the severity of their symptoms of PMS from severe to moderately severe
same,patient rating of PMS,[3]; paroxetine 20 mg t.i.d. and lithium 300 mg t.i.d.,moderate to severe and barely tolerable
same,depression,[3]; resumed lithium 300 mg t.i.d. and paroxetine 40 mg per day,their depression was refractory
[Cr] [chromium],time to relief of symptoms,severe dysthymia; chromium picolinate 200 μg b.i.d. with sertraline 100 mg qd,relief of symptoms within four to five days
chromium picolinate,pre-menstrual syndrome / menses symptoms,[4],their menses was less problematic
same,patient-reported condition on chromium alone,"[5]; 400 μg chromium per day (200 μg b.i.d.), sertraline discontinued",their sleep was much improved; also recorded: felt the best they had felt in a decade
same,time to improvement after dose increase,"[5]; crisis period at work, 200 μg chromium t.i.d.","Within an hour, they noticed immediate improvement"
same,plasma chromium level,"Plasma chromium level; Patient No. 1, 400 μg chromium per day as chromium picolinate, sertraline discontinued",0.9 µg/L
same,plasma chromium,"Plasma chromium level; Patient No. 2, four days after resuming chromium picolinate 200 μg per day",0.8 µg/L
same,overall response,"severe dysthymia; chromium 200 μg twice daily, 400 μg per day",marked improvement
same,alcohol cravings,alcohol craving,significantly diminished alcohol cravings
same,SCL-90 score,"dysthymia; 200 μg chromium per day with sertraline 100 mg per day, second week",definite improvement
same,response after resuming treatment,dysthymia; chromium picolinate 200 μg per day,Within two days they felt better and had no symptoms
same,patient-reported symptoms during week,dysthymia; component taken along with sertraline 100 mg per day,their appetite was less
same,Beck Scale estimated via telephone interview,"dysthymia; resumed chromium picolinate 200 μg per day, sertraline continued",+2
same,signs or symptoms of PMS,[3]; chromium 200 μg b.i.d. with paroxetine 20 mg t.i.d. and lithium 300 mg t.i.d.,"completely without signs or symptoms of PMS, except for breast swelling"
same,potential adverse side effect,[2]; 200 μg chromium from chromium picolinate taken late in the day,their sleep was disturbed
same,patient-reported symptoms during week,[2],"dramatic, certain and immediate relief of symptoms"
same,total Beck score at the end of the week,[2]; one pill of component a day for five days along with sertraline 125 mg qd (chromium 200 μg per day),0
"CN(C)CCC=C1c2ccccc2CCc2ccccc21 [ELAVIL, amitriptyline HCl]",effect on depression,severe dysthymia; 50 mg per day,helped them sleep
same,effect on depression,severe dysthymia; increased to 100 mg per day after tolerance,no effect
"CN[C@H]1CC[C@@H](c2ccc(Cl)c(Cl)c2)c2ccccc21 [sertraline, reference compound]",effect on depression,dysthymia; sertraline 50 mg qd,little help
same,effect on depression,dysthymia; sertraline 100 mg qd for five weeks,"still symptomatic of depression, but felt better"
same,SCL-90 score,dysthymia; [6],+4
same,grand total Beck score,dysthymia; [6],+12
same,total Beck score,[2]; sertraline 125 mg each day for five days with vitamin C placebo,+10
same,symptoms in week prior to study,[2]; sertraline 125 mg qd alone,"loss of energy, disturbed sleep, and awaking tired"
same,relief of symptoms of dysthymia,[2]; [7],provided some relief of the symptoms of dysthymia
same,side effects,[2]; [7],"made the patient sluggish in their daily activities and made their thinking cloudy, or fuzzy"
